Test results from patent US10508109B2 (priority 2015, dated 2019).
Counter-ions that a name gives are not always drawn. Like-named read-outs stand apart in the source and are kept apart here.

Tests used:
SUV39H2 = SUV39H2 (Homo sapiens (Human), UniProt Q9H5I1); experiment: biochemical; type: biochemical; conditions: 3H-SAM 100 nM, H3 Histone Peptide 350 nM, room temperature 3 hours
Procedure, shortened: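 Human SUV39H2, at a lot-specific concentration set by specific activity, was incubated with test compounds for 3 h at room temperature, then stopped with streptavidin SPA beads (50 μg/well final).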

A549 = experiment: Cell-based assay, anti-proliferative activity (Cell Counting Kit-8, 72 hours); conditions: Homo sapiens, read-out: A549 IC50
Procedure, shortened: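 Cells were seeded in 96-well plates and exposed to candidate inhibitors. Cellular growth was then determined with the colorimetric kit, and IC50 values were calculated from the growth data.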

[1] = A549 cells, 72 hours exposure, Cell Counting Kit-8

SUV39H2, sequence (Q9H5I1 whole entry): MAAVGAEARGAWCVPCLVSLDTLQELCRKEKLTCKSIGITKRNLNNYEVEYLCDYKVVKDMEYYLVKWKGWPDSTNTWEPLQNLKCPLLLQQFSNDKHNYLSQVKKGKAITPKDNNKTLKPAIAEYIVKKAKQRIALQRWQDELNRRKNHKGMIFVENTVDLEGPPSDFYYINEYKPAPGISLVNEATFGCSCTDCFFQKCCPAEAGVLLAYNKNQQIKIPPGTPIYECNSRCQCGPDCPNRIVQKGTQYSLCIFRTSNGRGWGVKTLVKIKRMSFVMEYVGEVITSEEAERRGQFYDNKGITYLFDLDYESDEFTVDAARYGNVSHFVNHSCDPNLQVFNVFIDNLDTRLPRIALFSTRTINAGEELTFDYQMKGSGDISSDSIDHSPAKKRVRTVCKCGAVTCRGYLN

SMILES	IC50 (SUV39H2) [nM]	IC50 (A549; [1]) [nM]	IC50 (A549; A549, 72 h) [nM]
COc1cc(OC(F)F)c(-c2cn3ccc(N4CC[C@H](NC(=O)OC(C)(C)C)C4)cc3n2)cc1Cl [Example 408, (S)-tert-butyl (1-(2-(5-chloro-2-(difluoromethoxy)-4-methoxyphenyl)imidazo[1,2-a]pyridine-7-yl)pyrrolidin-3-yl)carbamate]	12.7	560	
COc1cc(OC)c(-c2cn3ccc(N4CCN(c5nc(N)nc(N6CCC(N(C)C)C6)n5)CC4)cc3n2)cc1Cl (centres unmarked) [Example 436, 4-(4-(2-(5-chloro-2,4-dimethoxyphenyl)imidazo[1,2-a]pyridin-7-yl)piperazin-1-yl)-6-(3-(dimethylamino)pyrrolidin-1-yl)-1,3,5-triazin-2-amine]	11.7	650	
COc1cc(OC)c(-c2cn3ccc(N[C@H]4C[C@H]5CC[C@@H](C4)N5CC(C)(C)C)cc3n2)cc1Cl [Example 452, 2-(5-chloro-2,4-dimethoxyphenyl)-N-((1R,3r,5S)-8-neopentyl-8-azabicyclo[3.2.1]octan-3-yl)imidazo[1,2-a]pyridin-7-amine]	42.6	830	
COc1cc(OC)c(-c2cn3ccc(N4CCN(c5nccc(N6CCN(C)CC6)n5)CC4)cc3n2)cc1Cl [Example 370, 2-(5-chloro-2,4-dimethoxyphenyl)-7-(4-(4-(4-methylpiperazin-1-yl)pyrimidin-2-yl)piperazin-1-yl)imidazo[1,2-a]pyridine]	12		730
COc1cc(OC)c(-c2cn3ccc(N4CCN(c5ccnc(NCC(C)O)n5)CC4)cc3n2)cc1Cl (centres unmarked) [Example 399, 1-((4-(4-(2-(5-chloro-2,4-dimethoxyphenyl)imidazo[1,2-a]pyridine-7-yl)piperazin-1-yl)pyrimidin-2-yl)amino)propan-2-ol]	11.7	660	
COc1cc(OC)c(-c2cn3ccc(N4CCN(c5ccnc(N6CCC(CO)C6)n5)CC4)cc3n2)cc1Cl (centres unmarked) [Example 367, (1-(4-(4-(2-(5-chloro-2,4-dimethoxyphenyl)imidazo[1,2-a]pyridine-7-yl)piperazin-1-yl)pyrimidin-2-yl)pyrrolidin-3-yl)methanol]	26.2	980	
COc1cc(OC)c(-c2cn3ccc(NC4CCN(Cc5ccc([N+](=O)[O-])o5)CC4)cc3n2)cc1Cl [Example 343, 2-(5-chloro-2,4-dimethoxyphenyl)-N-(1-((5-nitrofuran-2-yl)methyl)piperidin-4-yl)imidazo[1,2-a]pyridin-7-amine]	47.9	910	
COc1cc(OC)c(-c2cn3ccc(N4CCN(c5ncc(N6CCOCC6)cn5)CC4)cc3n2)cc1Cl [Example 427, 4-(2-(4-(2-(5-chloro-2,4-dimethoxyphenyl)imidazo[1,2-a]pyridin-7-yl)piperazin-1-yl)pyrimidin-5-yl)morpholine]	25.1	820	
COc1cc(OC)c(-c2cn3ccc(N4CCN(c5cnc(N6CCC(N)CC6)nc5)CC4)cc3n2)cc1Cl [Example 350, 1-(5-(4-(2-(5-chloro-2,4-dimethoxyphenyl)imidazo[1,2-a]pyridin-7-yl)piperazin-1-yl)pyrimidin-2-yl)piperidin-4-amine]	7.35	680	
COc1ccc(CN[C@H]2CC[C@@H](Nc3ccn4cc(-c5cc(Cl)c(OC)cc5OC)nc4c3)CC2)cc1 [Example 380, cis-N^1-(2-(5-chloro-2,4-dimethoxyphenyl)imidazo[1,2-a]pyridin-7-yl)-N^4-(4-methoxybenzyl)cyclohexane-1,4-diamine bis(2,2,2-trifluoroacetate)]	33.3	600	
COc1cc(OC)c(-c2cn3ccc(N4CCN(c5ccnc(N6CCC(O)C6)n5)CC4)cc3n2)cc1Cl (centres unmarked) [Example 346, 1-(4-(4-(2-(5-chloro-2,4-dimethoxyphenyl)imidazo[1,2-a]pyridin-7-yl)piperazin-1-yl)pyrimidin-2-yl)pyrrolidin-3-ol]	15.3		590
COc1cc(OC)c(-c2cn3ccc(N4CCN(c5ccnc(N6CCC(N)C6)n5)CC4)cc3n2)cc1Cl (centres unmarked) [Example 354, 1-(4-(4-(2-(5-chloro-2,4-dimethoxyphenyl)imidazo[1,2-a]pyridin-7-yl)piperazin-1-yl)pyrimidin-2-yl)pyrrolidin-3-amine]	12.9	490	
COc1cc(OC)c(-c2cn3ccc(N4CCCN(CC5CCCCC5)CC4)cc3n2)cc1Cl [Example 435, 2-(5-chloro-2,4-dimethoxyphenyl)-7-(4-(cyclohexylmethyl)-1,4-diazepan-1-yl)imidazo[1,2-a]pyridine]	6.46	650	
COc1cc(OC)c(-c2cn3ccc(N[C@H]4CC[C@@H](NCc5cccc(C#N)c5)CC4)cc3n2)cc1Cl [Example 371, 3-(((cis-4-((2-(5-chloro-2,4-dimethoxyphenyl)imidazo[1,2-a]pyridin-7-yl)amino)cyclohexyl)amino)methyl)benzonitrile]	16.1	690	
CNc1ncc(N2CCN(c3ccn4cc(-c5cc(Cl)c(OC)cc5OC)nc4c3)CC2)cn1 [Example 340, 5-(4-(2-(5-chloro-2,4-dimethoxyphenyl)imidazo[1,2-a]pyridin-7-yl)piperazin-1-yl)-N-methylpyrimidin-2-amine trifluoroacetate]	17.1	690	
COc1cc(OC)c(-c2cn3ccc(N4CCN(Cc5ccncc5Br)CC4)cc3n2)cc1Cl [Example 345, 7-(4-((3-bromopyridin-4-yl)methyl)piperazin-1-yl)-2-(5-chloro-2,4-dimethoxyphenyl)imidazo[1,2-a]pyridine]	35.4	850	
COc1cc(OC)c(-c2cn3cnc(N4CC[C@H](NC(=O)OC(C)(C)C)C4)cc3n2)cc1Cl [Example 387, (S)-tert-butyl (1-(2-(5-chloro-2,4-dimethoxyphenyl)imidazo[1,2-c]pyrimidin-7-yl)pyrrolidin-3-yl)carbamate]	33.2	1600	
COc1cc(OC)c(-c2cn3ccc(N[C@H]4CC[C@H](CN5CCN(c6ncccn6)CC5)CC4)cc3n2)cc1Cl [Example 316, 2-(5-chloro-2,4-dimethoxyphenyl)-N-((trans)-4-((4-(pyrimidin-2-yl)piperazin-1-yl)methyl)cyclohexyl)imidazo[1,2-a]pyridin-7-amine]	77	700	
COc1cc(OC)c(-c2cn3ccc(N4CCCN(Cc5ccncc5)CC4)cc3n2)cc1Cl [Example 388, 2-(5-chloro-2,4-dimethoxyphenyl)-7-(4-(pyridin-4-ylmethyl)-1,4-diazepan-1-yl)imidazo[1,2-a]pyridine dihydrochloride]	5.05		560
COc1cc(OC)c(-c2cn3ccc(N4CCN(c5cccc(N6CCN(C)CC6)n5)CC4)cc3n2)cc1Cl [Example 381, 2-(5-chloro-2,4-dimethoxyphenyl)-7-(4-(6-(4-methylpiperazin-1-yl)pyridin-2-yl)piperazin-1-yl)imidazo[1,2-a]pyridine]	43.1	770	
COc1cc(OC)c(-c2cn3ccc(N4CCN(c5cnc(N6CCCC(N)C6)nc5)CC4)cc3n2)cc1Cl (centres unmarked) [Example 417, 1-(5-(4-(2-(5-chloro-2,4-dimethoxyphenyl)imidazo[1,2-a]pyridin-7-yl)piperazin-1-yl)pyrimidin-2-yl)piperidin-3-amine]	9.91	620	
COc1cc(OC)c(-c2cn3ccc(N4CCN(C(=O)c5ccncc5)CC4)cc3n2)cc1Cl [Example 319, (4-(2-(5-chloro-2,4-dimethoxyphenyl)imidazo[1,2-a]pyridin-7-yl)piperazin-1-yl)(pyridin-4-yl)methanone]	16.4	4600	
COc1cc(OC)c(-c2cn3ccc(N[C@H]4CC[C@H](NCc5ccc(N(C)C)cc5)CC4)cc3n2)cc1Cl [Example 419, (1r,4r)-N^1-(2-(5-chloro-2,4-dimethoxyphenyl)imidazo[1,2-a]pyridin-7-yl)-N^4-(4-(dimethylamino)benzyl)cyclohexane-1,4-diamine]	82	490	
CNC1CCN(c2nccc(N3CCN(c4ccn5cc(-c6cc(Cl)c(OC)cc6OC)nc5c4)CC3)n2)C1 (centres unmarked) [Example 372, 1-(4-(4-(2-(5-chloro-2,4-dimethoxyphenyl)imidazo[1,2-a]pyridine-7-yl)piperazin-1-yl)pyrimidin-2-yl)-N-methylpyrrolidin-3-amine trihydrochloride]	18.3		700
COc1cc(OC)c(-c2cn3ccc(N4CCN(S(C)(=O)=O)CC4C)cc3n2)cc1Cl (centres unmarked) [Example 311, 2-(5-chloro-2,4-dimethoxyphenyl)-7-(2-methyl-4-(methylsulfonyl)piperazin-1-yl)imidazo[1,2-a]pyridine]	4.94	3800	
COc1cc(OC)c(-c2cn3ccc(N4CCN(c5nc(N)nc(N6CCCC6)n5)CC4)cc3n2)cc1Cl [Example 431, 4-(4-(2-(5-chloro-2,4-dimethoxyphenyl)imidazo[1,2-a]pyridin-7-yl)piperazin-1-yl)-6-(pyrrolidin-1-yl)-1,3,5-triazin-2-amine]	88.4	760	
COc1cc(OC)c(-c2cn3ccc(N4CCN(c5nccc(N6CCNCC6)n5)CC4)cc3n2)cc1Cl [Example 359, 2-(5-chloro-2,4-dimethoxyphenyl)-7-(4-(4-(piperazin-1-yl)pyrimidin-2-yl)piperazin-1-yl)imidazo[1,2-a]pyridine dihydrochloride]	12.2		400
COc1cc(OC)c(-c2cn3ccc(N[C@H]4CC[C@H](Nc5nccc(N6CCOCC6)n5)CC4)cc3n2)cc1Cl [Example 406, (1r,4r)-N^1-(2-(5-chloro-2,4-dimethoxyphenyl)imidazo[1,2-a]pyridin-7-yl)-N^4-(4-morpholinopyrimidin-2-yl)cyclohexane-1,4-diamine]	37	740	
